Measurements published in patent publication US20230043678A1, “USE OF 5-METHYLTETRAHYDROFOLATE” (priority 2019, published 2023).
Like-named read-outs stand apart in the source and are kept apart here.

Key:
zebrafish embryos [1] = test system: zebrafish embryos
Protocol: Transgenic zebrafish (fli-1:EGFP) were from the Model Animal Research Center of Nanjing University. Adult zebrafish aged less than 1 year were used for experiment and fed at a water pH value of 7±0.2, a temperature around 28° C. and a ratio of illumination to darkness of 14 h:10 h, and with Artemia salina eggs twice a day. Three zebrafish, one female, two males, were placed in a spawning box the night before and eggs were collected the next morning. Fish eggs were placed in an embryo culture medium (prepared with 0.2 g/L of sea salt) and cultured at 28° C.
Zebrafish embryos were cultured in 24-well plates with 10 embryos per well at 2 hpf in a dosing manner, drug solutions of the above concentrations in the table were separately added, termination was conducted at 8 hpf, and the embryos were washed and transferred to an egg solution for continuous culture to 72 hpf. Dead embryos were cleaned up in time. Each experiment was conducted in triplicate.
A phenotype of malformation was observed, the number of all abnormal zebrafish where the malformation was present was recorded and a malformation rate and a rescue rate of each group were calculated. Morphological defects, a heart rate, cardiac morphology and other indicators were observed and evaluated by an SMZ745T inverted stereomicroscope.

zebrafish embryos [2] = conditions: 30 mM HCHO
zebrafish embryos [3] = test system: zebrafish embryos; remark: listed apart in the source
Protocol: Transgenic zebrafish (fli-1:EGFP) were from the Model Animal Research Center of Nanjing University. Adult zebrafish aged less than 1 were used for experiment and fed at a water pH value of 7±0.2, a temperature around 28° C. and a ratio of illumination to darkness of 14 h:10 h, and with Artemia salina eggs twice a day. Three zebrafish, one female, two males, were placed in a spawning box the night before and eggs were collected the next morning. Fish eggs were placed in an embryo culture medium (prepared with 0.2 g/L of sea salt) and cultured at 28° C. […] Dead embryos were cleaned up in time. A phenotype of malformation was observed, the number of all abnormal zebrafish where the malformation was present was recorded and a malformation rate and a rescue rate of each group were calculated. Morphological defects, a heart rate, cardiac morphology and other indicators were observed and evaluated by an SMZ745T inverted stereomicroscope.

zebrafish embryos [4] = test system: zebrafish embryos; remark: listed apart in the source
Protocol: A table was listed below for details.
5-Selected concentrations of methyltetrahydrofolate in the experiment were recorded in the table.

Q: Which results are given for `CCO` [EtOH, ethanol]?
A: survival rate (zebrafish embryos [1]; […] EtOH): significantly different from that of the control group; heart rate (zebrafish embryos [1]; zebrafish, in vivo): led to a malformed phenotype of bradycardia in zebrafish embryos; lower intestinal network blood vessels (zebrafish embryos [1]; zebrafish, in vivo): led to developmental disorders of lower intestinal network blood vessels of the zebrafish; pericardium edema (zebrafish embryos [1]; zebrafish, in vivo): led to a malformed phenotype of pericardium edema in zebrafish embryos

Q: Which “lethality and teratogenicity to zebrafish” value (zebrafish embryos [2]) does the source give for `C=O` [HCHO, formaldehyde] here?
A: lethal but not teratogenic to zebrafish

Q: What about the “pericardium edema and heart rate (48 hpf), body length (72 hpf)” value (zebrafish embryos [2]) of the same compound?
A: had no effect on the pericardium edema, the heart rate and the body length of the zebrafish

Q: What about the “survival rate of embryos” value (zebrafish embryos [2]) of the same compound?
A: severely lead to a low survival rate of embryos

Q: And the embryo development (zebrafish embryos [2]; 8 hpf)?
A: delayed development of the zebrafish embryos

Q: What about the “heart shape and lower intestinal network blood vessels” value (zebrafish embryos [2]; 72 hpf) of the same compound?
A: normal heart shape and normal development of lower intestinal network blood vessels

Q: `CN(Cc1cnc2nc(N)nc(N)c2n1)c1ccc(C(=O)N[C@@H](CCC(=O)O)C(=O)O)cc1` [MTX, methotrexate] was tested. Which “pericardium edema and 10 s heart rate (48 hpf), body length (72 hpf)” value (zebrafish embryos [3]; 1.5 mM MTX) did it give?
A: seriously led to pericardium edema, bradycardia, and a shortened body length of zebrafish

Q: And the “survival rate of embryos” value (zebrafish embryos [3]; 1.5 mM MTX, 6-10 hpf)?
A: lower than 0.1

Q: What about the embryo phenotype (zebrafish embryos [3]; 1.5 mM MTX, 24 hpf) of the same compound?
A: led to hypoplasia and deformities such as small heads and short tails of zebrafish

Q: What about the embryo phenotype (zebrafish embryos [3]; 1.5 mM MTX, 48 hpf) of the same compound?
A: led to body bending, intersegmental vascular hypoplasia and pericardium edema of zebrafish

Q: And the embryo phenotype (zebrafish embryos [3]; 1.5 mM MTX, 72 hpf)?
A: led to a short body length and lower intestinal network vessel hypoplasia

Q: What about the Malformation rate (zebrafish embryos [3]; MTX group (1.5 mM)) of the same compound?
A: 100%

Q: What does the source list for `COc1cccc2c1cc([N+](=O)[O-])c1c(C(=O)O)cc3c(c12)OCO3` [aristolochic acid A]?
A: pericardium edema and 10 s heart rate (48 hpf), body length (72 hpf) (zebrafish embryos [4]; 1-5 μM aristolochic acid A): seriously led to pericardium edema, bradycardia, and a shortened body length in zebrafish; embryo phenotype (zebrafish embryos [4]; 1-5 μM aristolochic acid A, 8 hpf and 24 hpf): did not lead to obvious embryonic development delay, malformation and death; survival rate of embryos (zebrafish embryos [4]; 2-5 μM aristolochic acid A): seriously reduce a survival rate of embryos; embryo phenotype (zebrafish embryos [4]; aristolochic acid A, 72 hpf): showed a complete deficiency of development of the lower intestinal network blood vessels of the zebrafish; embryo phenotype (zebrafish embryos [4]; aristolochic acid A, increasing concentration, 48 hpf): gradually showed pericardium edema, a slowed heart rate, curved bodies, a disappeared systemic blood flow, hematocele, yolk sac opacity
